For two compounds, IC50 hyaluronidase inhibition and inhibition results are on record in paper PMC9921161, “Antihyaluronidase and Antioxidant Potential of Atriplex sagittata Borkh. in Relation to Phenolic Compounds and Triterpene Saponins” (Molecules, 2023).

In general, inhibition refers to the percentage by which the read-out fell short of the control.

The target in this assay is Hyaluronidase from bovine testes type I-S (Bos taurus, UniProt Q2YDK3). Description: Antihyaluronidase activity, spectrophotometric (turbidimetric CTAB) method. The class given is biochemical. Conditions: for IC50 hyaluronidase inhibition: pH 4.5, 37 °C. The method, then: Antihyaluronidase activity was determined using a spectrophotometric method described previously. Briefly, extracts after evaporation of methanol were dissolved in DMSO (at concentrations of 0.01–1 mg/mL) and were pre-incubated (10 min, 37 °C) in the presence of the hyaluronidase enzyme (25 µL Hyal, 30 U/mL) and incubation buffer (25 µL, acetate buffer, pH 4.5, […], 0.5 mg/mL albumin). The same procedure was applied to isolated compounds (at concentrations 0.005–1 mg/mL). Next, a solution of hyaluronic acid (25 µL HA, 0.3 mg/mL) was added to the reaction mixtures and the samples were incubated (45 min, 37 °C). After incubation, CTAB (200 µL of 2.5%) solution was added to the reaction mixtures. The inhibitory effect of the tested extracts and saponins on the enzyme activity was determined on the basis of the measurement of the absorbance of the precipitated nonhydrolyzed hyaluronic acid. The study was carried out using a multipurpose plate reader (Synergy HT BioTek, Winooski, VT, USA) at a wavelength of 600 nm. Antihyaluronidase activity was expressed as % enzyme inhibition, as previously described. Quercetin and escin were used as positive controls in the range of concentrations (10–1000 µg/mL corresponding to the analyzed substances (see Table 4).

Setting [1] is: read-out: Hyaluronidase Inhibition [%].

Sequence of Hyaluronidase from bovine testes type I-S (Q2YDK3 entry or part of it): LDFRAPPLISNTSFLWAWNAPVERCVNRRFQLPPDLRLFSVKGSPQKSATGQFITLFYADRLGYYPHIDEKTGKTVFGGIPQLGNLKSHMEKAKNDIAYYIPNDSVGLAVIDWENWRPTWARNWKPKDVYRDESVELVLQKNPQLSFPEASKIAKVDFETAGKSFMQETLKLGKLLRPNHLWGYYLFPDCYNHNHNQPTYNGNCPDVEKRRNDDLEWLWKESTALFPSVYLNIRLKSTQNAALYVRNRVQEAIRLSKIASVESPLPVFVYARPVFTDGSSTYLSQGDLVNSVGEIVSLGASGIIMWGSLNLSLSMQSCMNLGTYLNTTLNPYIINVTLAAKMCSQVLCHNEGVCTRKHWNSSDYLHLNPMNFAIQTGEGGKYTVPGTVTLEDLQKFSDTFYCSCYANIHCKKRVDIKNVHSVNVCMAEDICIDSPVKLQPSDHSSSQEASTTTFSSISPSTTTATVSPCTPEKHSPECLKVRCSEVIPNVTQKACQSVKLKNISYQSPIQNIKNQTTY

With `O=c1c(O)c(-c2ccc(O)c(O)c2)oc2cc(O)cc(O)c12` [quercetin], the IC50 hyaluronidase inhibition stood at 514.28 µg/mL. Under setting [1], the inhibition at 10 µg/mL stood at 0.61 ± 0.53%, the inhibition at 20 µg/mL stood at 0.62 ± 0.54%, the inhibition at 50 µg/mL is 1.24 ± 0.99% and the inhibition at 100 µg/mL came to 4.39 ± 0.88%. Under setting [1], the inhibition at 200 µg/mL is 13.9 ± 2.7%, the inhibition at 300 µg/mL was determined as 21.9 ± 4.04%, the inhibition at 500 µg/mL worked out at 38.8 ± 1.33% and the inhibition at 700 µg/mL was found to be 80.56 ± 0.49%. Further, under setting [1], the inhibition at 1000 µg/mL worked out at 91.1 ± 1.5%.

With escin, the IC50 hyaluronidase inhibition is 307.38 µg/mL.
